Measured values published in patent US10874670B2, “Substituted fused heteroaromatic compounds as kinase inhibitors and the use thereof” (IMPACT THERAPEUTICS, INC., priority 2017, dated 2020).

Assays:
ATM enzyme (human) = ATM enzyme (human) (Homo sapiens, UniProt Q13315); assay: ATM kinase assay (HTRF, GST-cMyc-p53 substrate); type: biochemical; details: 0.5 h, read-out: Inh (%) of ATM kinase; for inhibition at 1 µM: C 1 μm (final concentration of compound); for inhibition at 0.01 µM: C 0.01 μm (final concentration of compound); for inhibition at 0.1 µM: C 0.1 μm (final concentration of compound)
Outline: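 Reaction with GST-cMyc-p53 substrate started with Mg/ATP, run 30 minutes at room temperature, then stopped with EDTA. Phospho-p53 (Ser15) detected by HTRF with Eu-labelled anti-phospho antibody and d2 anti-GST, signal as 10000×(Em665/Em620). Duplicates; IC50 from a curve fit with slope factor.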

[1] = tested on: human breast cancer cell MDA-MB-468; assay: MTT assay, growth of MDA-MB-468 cells; type: cell-based; details: Homo sapiens, MDA-MB-468, 168 h; 7 days, MTT
Outline: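 MDA-MB-468 cells in RPMI 1640 with 10% FBS were exposed to 8-point compound dilutions (final DMSO 1%) for 7 days at 37 °C, with drug-containing medium renewed on day 4. Viability was read by MTT (0.5 mg/mL, 4 h) absorbance at 552/630/690 nm. IC50 came from a sigmoidal dose-response fit.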

[2] = tested on: human colon cancer cell SW620; assay: MTT assay, growth of SW620 cells, compounds combined with CPT-11; type: cell-based; details: Homo sapiens, SW-620, 120 h; combined with CPT-11 (205 nM medium), 5 days, MTT
Outline: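 SW620 cells in RPMI 1640/10% FBS were exposed to 8-point compound dilutions (top 10 or 1 μM, 1% DMSO final) plus CPT-11 (205 nM in added medium) for 5 days at 37 °C. Viability by MTT (0.5 mg/mL, 4 h) absorbance; IC50 from sigmoidal fit.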

Chain of ATM enzyme (human) (Q13315 whole entry): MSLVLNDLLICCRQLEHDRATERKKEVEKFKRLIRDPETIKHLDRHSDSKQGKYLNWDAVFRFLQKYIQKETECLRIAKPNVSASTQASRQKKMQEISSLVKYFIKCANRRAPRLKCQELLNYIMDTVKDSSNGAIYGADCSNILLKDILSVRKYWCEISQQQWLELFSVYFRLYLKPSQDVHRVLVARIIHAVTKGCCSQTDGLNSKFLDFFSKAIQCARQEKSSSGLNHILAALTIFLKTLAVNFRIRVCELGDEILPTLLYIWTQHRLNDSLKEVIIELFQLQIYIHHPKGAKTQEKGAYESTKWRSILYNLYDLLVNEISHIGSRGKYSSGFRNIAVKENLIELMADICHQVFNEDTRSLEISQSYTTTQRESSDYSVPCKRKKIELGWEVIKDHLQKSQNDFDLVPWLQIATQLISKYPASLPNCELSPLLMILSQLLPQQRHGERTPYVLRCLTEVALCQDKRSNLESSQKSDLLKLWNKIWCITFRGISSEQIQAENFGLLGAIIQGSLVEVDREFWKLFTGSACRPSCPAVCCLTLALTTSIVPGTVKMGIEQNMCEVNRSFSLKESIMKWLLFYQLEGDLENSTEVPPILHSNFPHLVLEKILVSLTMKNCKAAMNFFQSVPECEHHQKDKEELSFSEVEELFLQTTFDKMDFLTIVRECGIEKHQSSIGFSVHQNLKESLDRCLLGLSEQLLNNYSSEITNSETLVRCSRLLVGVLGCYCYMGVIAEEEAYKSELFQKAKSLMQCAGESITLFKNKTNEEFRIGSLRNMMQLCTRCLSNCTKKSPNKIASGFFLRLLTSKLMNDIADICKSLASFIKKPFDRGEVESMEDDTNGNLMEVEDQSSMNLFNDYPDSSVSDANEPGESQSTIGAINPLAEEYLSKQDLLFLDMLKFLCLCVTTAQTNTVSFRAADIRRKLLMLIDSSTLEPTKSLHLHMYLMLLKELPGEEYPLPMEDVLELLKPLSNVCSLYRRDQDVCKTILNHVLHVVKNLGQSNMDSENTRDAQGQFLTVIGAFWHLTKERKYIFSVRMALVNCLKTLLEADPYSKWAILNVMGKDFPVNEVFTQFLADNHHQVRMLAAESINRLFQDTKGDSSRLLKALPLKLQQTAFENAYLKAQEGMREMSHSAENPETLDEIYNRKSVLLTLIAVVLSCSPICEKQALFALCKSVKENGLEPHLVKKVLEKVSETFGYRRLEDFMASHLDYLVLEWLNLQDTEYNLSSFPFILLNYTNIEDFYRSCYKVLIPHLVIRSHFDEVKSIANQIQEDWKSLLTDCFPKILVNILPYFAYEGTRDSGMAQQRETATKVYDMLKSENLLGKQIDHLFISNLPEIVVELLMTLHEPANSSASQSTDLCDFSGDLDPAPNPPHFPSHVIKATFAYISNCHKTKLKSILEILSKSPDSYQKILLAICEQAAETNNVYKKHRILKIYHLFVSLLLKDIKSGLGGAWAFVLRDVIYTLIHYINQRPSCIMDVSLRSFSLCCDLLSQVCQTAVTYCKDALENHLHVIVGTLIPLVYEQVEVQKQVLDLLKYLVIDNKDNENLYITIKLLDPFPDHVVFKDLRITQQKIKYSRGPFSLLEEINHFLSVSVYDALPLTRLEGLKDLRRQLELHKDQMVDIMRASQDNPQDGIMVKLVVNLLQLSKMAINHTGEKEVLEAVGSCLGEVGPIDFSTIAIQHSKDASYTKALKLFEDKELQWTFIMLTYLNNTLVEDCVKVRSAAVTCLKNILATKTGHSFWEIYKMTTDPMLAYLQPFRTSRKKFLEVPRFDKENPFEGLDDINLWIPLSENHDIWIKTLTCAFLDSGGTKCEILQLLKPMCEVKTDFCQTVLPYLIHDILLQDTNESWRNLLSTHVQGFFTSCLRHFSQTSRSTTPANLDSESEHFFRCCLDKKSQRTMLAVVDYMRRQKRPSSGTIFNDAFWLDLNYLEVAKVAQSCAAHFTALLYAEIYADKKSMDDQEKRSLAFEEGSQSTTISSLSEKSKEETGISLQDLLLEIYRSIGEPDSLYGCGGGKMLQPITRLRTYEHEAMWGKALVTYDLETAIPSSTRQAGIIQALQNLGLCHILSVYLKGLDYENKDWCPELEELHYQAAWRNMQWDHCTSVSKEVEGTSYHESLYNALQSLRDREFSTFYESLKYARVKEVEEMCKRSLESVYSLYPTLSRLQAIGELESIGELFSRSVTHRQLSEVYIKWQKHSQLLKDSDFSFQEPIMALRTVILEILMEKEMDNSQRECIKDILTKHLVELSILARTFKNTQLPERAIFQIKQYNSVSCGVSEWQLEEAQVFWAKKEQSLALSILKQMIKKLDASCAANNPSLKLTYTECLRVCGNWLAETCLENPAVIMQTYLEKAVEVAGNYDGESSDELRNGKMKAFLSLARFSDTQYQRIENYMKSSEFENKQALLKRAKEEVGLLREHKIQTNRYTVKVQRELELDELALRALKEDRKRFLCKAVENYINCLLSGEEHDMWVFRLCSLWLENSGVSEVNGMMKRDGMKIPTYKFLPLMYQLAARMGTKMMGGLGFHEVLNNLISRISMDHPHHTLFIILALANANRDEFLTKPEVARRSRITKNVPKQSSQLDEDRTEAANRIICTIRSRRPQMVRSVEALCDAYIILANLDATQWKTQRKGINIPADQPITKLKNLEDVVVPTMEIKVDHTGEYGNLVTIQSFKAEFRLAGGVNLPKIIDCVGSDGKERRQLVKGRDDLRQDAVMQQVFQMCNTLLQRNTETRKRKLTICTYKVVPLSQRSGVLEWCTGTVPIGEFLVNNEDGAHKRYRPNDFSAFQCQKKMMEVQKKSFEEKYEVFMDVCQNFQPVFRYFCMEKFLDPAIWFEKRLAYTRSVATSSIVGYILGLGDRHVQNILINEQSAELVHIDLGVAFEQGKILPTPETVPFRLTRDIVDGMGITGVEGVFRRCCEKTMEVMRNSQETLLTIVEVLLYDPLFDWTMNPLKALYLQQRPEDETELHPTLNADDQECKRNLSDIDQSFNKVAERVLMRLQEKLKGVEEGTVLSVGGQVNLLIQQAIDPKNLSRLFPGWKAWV

| SMILES | inhibition at 1 µM (ATM enzyme (human)) [%] | IC50 [1] [nM] | IC50 [2] [nM] | inhibition at 0.001 µM (ATM enzyme (human); C 0.001 μm (final concentration of compound)) [%] | inhibition at 0.01 µM (ATM enzyme (human)) [%] | inhibition at 0.1 µM (ATM enzyme (human)) [%] |
| --- | --- | --- | --- | --- | --- | --- |
| CN(C)C1CCN(c2ccc(-c3cc4c(cn3)ncc3nnc(C5CCOCC5)n34)cc2)CC1 [Example 71, N,N-dimethyl-1-(4-(1-(tetrahydro-2H-pyran-4-yl)pyrido[3,4-e][1,2,4]triazolo[4,3-a]pyrazin-8-yl)phenyl)piperidin-4-amine] | 19 | > 100000 | > 100000 |  |  |  |
| CN(C)C1CCN(c2ccc(-c3ccc4ncc5nnc(C6CCOCC6)n5c4n3)cc2)CC1 [Example 72, N,N-dimethyl-1-(4-(9-(tetrahydro-2H-pyran-4-yl)pyrido[3,2-e][1,2,4]triazolo[4,3-a]pyrazin-2-yl)phenyl)piperidin-4-amine] | 99 | 104 | 62.9 | 39 | 82 | 97 |
| NC1CCN(c2ccc(-c3ccc4ncc5nnc(C6CCOCC6)n5c4n3)cc2)CC1 [Example 73, 1-(4-(9-(tetrahydro-2H-pyran-4-yl)pyrido[3,2-e][1,2,4]triazolo[4,3-a]pyrazin-2-yl)phenyl)piperidin-4-amine] | 100 | 210 | 191 |  |  |  |
| CNC1CCN(c2ccc(-c3ccc4ncc5nnc(C6CCOCC6)n5c4n3)cc2)CC1 [Example 74, N-methyl-1-(4-(9-(tetrahydro-2H-pyran-4-yl)pyrido[3,2-e][1,2,4]triazolo[4,3-a]pyrazin-2-yl)phenyl)piperidin-4-amine] | 100 | 305 | 199 |  | 66 | 96 |
| CCNC1CCN(c2ccc(-c3ccc4ncc5nnc(C6CCOCC6)n5c4n3)cc2)CC1 [Example 75, N-ethyl-1-(4-(9-(tetrahydro-2H-pyran-4-yl)pyrido[3,2-e][1,2,4]triazolo[4,3-a]pyrazin-2-yl)phenyl)piperidin-4-amine] | 100 | 168 | 158 |  |  |  |
| CN(C)C1CCN(c2ccc(-c3ccc4ncc5nnc(C6CCOCC6)n5c4n3)cn2)CC1 [Example 76, N,N-dimethyl-1-(5-(9-(tetrahydro-2H-pyran-4-yl)pyrido[3,2-e][1,2,4]triazolo[4,3-a]pyrazin-2-yl)pyridin-2-yl)piperidin-4-amine] | 100 | 262 | 818 |  |  |  |
| CNC1CCN(c2ccc(-c3ccc4ncc5nnc(CN6CCOCC6)n5c4n3)cc2)CC1 [Example 77, N-methyl-1-(4-(9-(morpholinomethyl)pyrido[3,2-e][1,2,4]triazolo[4,3-a]pyrazin-2-yl)phenyl)piperidin-4-amine] | 97 | 937 | 1010 |  |  |  |
